Activity calls are given as the source filed them. How the calls were made is not given here.
Tested on: rodent carcinogenicity bioassays, tumor incidence
Assay: CCRIS carcinogenicity studies
Summary of the method: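 NCI-built, expert-reviewed records of carcinogenicity and related test outcomes (mutagenicity, tumor promotion/inhibition) compiled from published and report sources, historical span 1985-2011, not updated.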

`O=C1OC(c2ccc(O)cc2)(c2ccc(O)cc2)c2ccccc21` was tested, and the carcinogen call (Species: MOUSE, Strain/Sex: B6C3F1/FEMALE, Route: ORAL, Dose: 0, 3000, 6000, 12000 PPM IN DIET FOR 2 YR (STUDY DURATION: 2 YR), Dose: 0, 3000, 6000, 12000 PPM IN DIET FOR 2 YR (STUDY DURATION: 2 YR), Tumor Site: Type of Lesion: OVARY: BENIGN SEX-CORD STROMAL TUMOR, LIVER: HISTIOCYTIC SARCOMA, LYMPHATIC SYSTEM: MALIGNANT LYMPHOMA, MALIGNANT LYMPHO, Tumor Site: Type of Lesion: OVARY: BENIGN SEX-CORD STROMAL TUMOR, LIVER: HISTIOCYTIC SARCOMA, LYMPHATIC SYSTEM: MALIGNANT LYMPHOMA, MALIGNANT LYMPHO) was “active; positive”, the carcinogen call (Species: MOUSE, Strain/Sex: B6C3F1/MALE, Route: ORAL, Dose: 0, 3000, 6000, 12000 PPM IN DIET FOR 2 YR (STUDY DURATION: 2 YR), Dose: 0, 3000, 6000, 12000 PPM IN DIET FOR 2 YR (STUDY DURATION: 2 YR), Tumor Site: Type of Lesion: LIVER: HISTIOCYTIC SARCOMA, LYMPHATIC SYSTEM: MALIGNANT LYMPHOMA (THYMIC ORIGIN)) was “active; positive” and the carcinogen call (Species: RAT, Strain/Sex: F344/FEMALE, Route: ORAL, Dose: 0, 12000, 25000, 50000 PPM IN DIET FOR 2 YR (STUDY DURATION: 2 YR), Dose: 0, 12000, 25000, 50000 PPM IN DIET FOR 2 YR (STUDY DURATION: 2 YR), Tumor Site: Type of Lesion: ADRENAL MEDULLA: BENIGN PHEOCHROMOCYTOMA, BENIGN OR MALIGNANT PHEOCHROMOCYTOMA) was “active; positive”. The carcinogen call (Species: RAT, Strain/Sex: F344/MALE, Route: ORAL, Dose: 0, 12000, 25000, 50000 PPM IN DIET FOR 2 YR (STUDY DURATION: 2 YR), Dose: 0, 12000, 25000, 50000 PPM IN DIET FOR 2 YR (STUDY DURATION: 2 YR), Tumor Site: Type of Lesion: ADRENAL MEDULLA: BENIGN PHEOCHROMOCYTOMA, KIDNEY(RENAL TUBULE): ADENOMA, ADENOMA OR CARCINOMA) was “active; positive”.

For `O=[N+]([O-])c1cccc2ccccc12`, the carcinogen call (Species: MOUSE, Strain/Sex: B6C3F1/FEMALE, Route: ORAL, Dose: 0, 0.06, 0.12% OF DIET, Dose: 0, 0.06, 0.12% OF DIET) was “inactive; negative”, the carcinogen call (Species: MOUSE, Strain/Sex: B6C3F1/MALE, Route: ORAL, Dose: 0, 0.06, 0.12% OF DIET, Dose: 0, 0.06, 0.12% OF DIET) was “inactive; negative” and the carcinogen call (Species: RAT, Strain/Sex: F344/FEMALE, Route: ORAL, Dose: 0, 0.06, 0.18% OF DIET, Dose: 0, 0.06, 0.18% OF DIET) was “inactive; negative”. The carcinogen call (Species: RAT, Strain/Sex: F344/MALE, Route: ORAL, Dose: 0, 0.06, 0.18% OF DIET, Dose: 0, 0.06, 0.18% OF DIET) was “inactive; negative”.

`Nc1ccccc1N` was tested, and the carcinogen call (Species: MOUSE, Route: ORAL, Tumor Site: Type of Lesion: LIVER) was “active; positive” and the carcinogen call (Species: RAT, Route: ORAL, Tumor Site: Type of Lesion: LIVER) was “active; positive”.

In the case of `Oc1ccc2ccccc2c1N=Nc1ccccc1`, the carcinogen call (Species: MOUSE, Route: SUBCUTANEOUS, Tumor Site: Type of Lesion: LIVER) was “active; positive”, the carcinogen call (Species: MOUSE, Strain/Sex: B6C3F1/MALE, Route: ORAL, Dose: 0, 500, 1000 PPM IN DIET, Dose: 0, 500, 1000 PPM IN DIET) was “inactive; negative” and the carcinogen call (Species: RAT, Strain/Sex: F344/FEMALE, Route: ORAL, Dose: 0, 250, 500 PPM IN DIET, Dose: 0, 250, 500 PPM IN DIET, Tumor Site: Type of Lesion: LIVER: NEOPLASTIC NODULE) was “active; positive”. The carcinogen call (Species: RAT, Strain/Sex: F344/MALE, Route: ORAL, Dose: O, 250, 500 PPM IN DIET, Dose: O, 250, 500 PPM IN DIET, Tumor Site: Type of Lesion: LIVER: NEOPLASTIC NODULE) was “active; positive”.

In the case of `Nc1ccc2c(n1)[nH]c1ccccc12`, the carcinogen call (Species: MOUSE, Strain/Sex: CDF1/FEMALE, Route: ORAL, Dose: 0, 0.08% IN DIET FOR UP TO 685 D (STUDY DURATION: 685 D), Tumor Site: Type of Lesion: LIVER: HEPATOCELLULAR ADENOMA OR CARCINOMA, BLOOD VESSELS: HEMANGIOENDOTHELIAL SARCOMA) was “active; positive”, the carcinogen call (Species: MOUSE, Strain/Sex: CDF1/MALE, Route: ORAL, Dose: 0, 0.08% IN DIET FOR UP TO 685 D (STUDY DURATION: 685 D), Tumor Site: Type of Lesion: LIVER: HEPATOCELLULAR ADENOMA OR CARCINOMA, BLOOD VESSELS: HEMANGIOENDOTHELIOMA OR HEMANGIOENDOTHELIAL SARCOMA) was “active; positive” and the carcinogen call (Species: RAT, Strain/Sex: SPRAGUE-DAWLEY/FEMALE, Route: ORAL, Dose: 0, 75 MG/KG IN 5 ML CORN OIL 1/D ON DAYS 43-47 AND 50-54 OF AGE ADMINISTERED TO RATS PLACED ON HIGH-FAT (23.5% CORN OIL)) was “inactive; negative”.

For `c1ccc2cc3c(cc2c1)-c1cccc2cccc-3c12`, the carcinogen call (Species: MOUSE, Route: DERMAL, Tumor Site: Type of Lesion: INTEGUMENTARY SYSTEM (SKIN)) was “active; positive” and the carcinogen call (Species: RAT, Strain/Sex: OSBORNE-MENDEL/FEMALE, Route: LUNG IMPLANT, Dose: 0, 0.16, 0.83, 4.15 MG IN BEESWAX/TRIOCTANOIN (STUDY DURATION: LIFETIME), Dose: 0, 0.16, 0.83, 4.15 MG IN BEESWAX/TRIOCTANOIN (STUDY DURATION: LIFETIME), Tumor Site: Type of Lesion: LUNG: EPIDERMOID CARCINOMA) was “active; positive”.

With `CC1CO1` (stereo not drawn) the carcinogen call (Species: MOUSE, Strain/Sex: B6C3F1/FEMALE, Route: INHALATION, Dose: 0, 200, 400 PPM 6 HR/D, 5 D/WK FOR 103 WK, Dose: 0, 200, 400 PPM 6 HR/D, 5 D/WK FOR 103 WK, Tumor Site: Type of Lesion: NASAL TURBINATES: HEMANGIOMA OR HEMANGIOSARCOMA) was “active; positive”, the carcinogen call (Species: MOUSE, Strain/Sex: B6C3F1/MALE, Route: INHALATION, Dose: 0, 200, 400 PPM 6 HR/D, 5 D/WK FOR 103 WK, Dose: 0, 200, 400 PPM 6 HR/D, 5 D/WK FOR 103 WK, Tumor Site: Type of Lesion: NASAL TURBINATES: HEMANGIOMA, HEMANGIOSARCOMA) was “active; positive” and the carcinogen call (Species: MOUSE, Strain/Sex: NMRI/FEMALE, Route: SUBCUTANEOUS, Dose: 0, 0.1, 0.3, 1, 2.5 MG/MOUSE IN TRICAPRYLIN 1/WK FOR 95 WK (STUDY DURATION: 110 WK), Dose: 0, 0.1, 0.3, 1, 2.5 MG/MOUSE IN TRICAPRYLIN 1/WK FOR 95 WK (STUDY DURATION: 110 WK), Tumor Site: Type of Lesion: INJECTION SITE: TUMOR) was “active; positive”. For the same compound, the carcinogen call (Species: RAT, Route: SUBCUTANEOUS, Tumor Site: Type of Lesion: INJECTION SITE) was “active; positive”, the carcinogen call (Species: RAT, Strain/Sex: F344/FEMALE, Route: INHALATION, Dose: 0, 200, 400 PPM 6 HR/D, 5 D/WK FOR 103 WK, Dose: 0, 200, 400 PPM 6 HR/D, 5 D/WK FOR 103 WK, Tumor Site: Type of Lesion: NASAL TURBINATES: PAPILLARY ADENOMA) was “active; positive” and the carcinogen call (Species: RAT, Strain/Sex: F344/MALE, Route: INHALATION, Dose: 0, 100, 300 PPM IN AIR 7 HR/D 5 D/WK FOR 104 WK (STUDY DURATION: 2 YR), Dose: 0, 100, 300 PPM IN AIR 7 HR/D 5 D/WK FOR 104 WK (STUDY DURATION: 2 YR), Tumor Site: Type of Lesion: ADRENAL GLAND: PHEOCHROMOCYTOMA, PITUITARY GLAND: ADENOMA) was “active; positive”. The carcinogen call (Species: RAT, Strain/Sex: F344/MALE, Route: INHALATION, Dose: 0, 200, 400 PPM 6 HR/D, 5 D/WK FOR 103 WK, Dose: 0, 200, 400 PPM 6 HR/D, 5 D/WK FOR 103 WK, Tumor Site: Type of Lesion: NASAL TURBINATES: PAPILLARY ADENOMA) was “active; positive”, the carcinogen call (Species: RAT, Strain/Sex: SPRAGUE-DAWLEY/FEMALE, Route: GAVAGE, Dose: 15, 60 MG/KG IN SALAD OIL 2/WK FOR UP TO 150 WK, Tumor Site: Type of Lesion: FORESTOMACH: SQUAMOUS CELL CARCINOMA) was “active; positive” and the carcinogen call (Species: RAT, Strain/Sex: SPRAGUE-DAWLEY/MALE, Route: INHALATION, Dose: 0, 435, 870, 1740 PPM 6 HR/D 5 D/WK FOR 30 D EXCEPT 1740 PPM GROUP WHICH WAS EXPOSED FOR 5 D (STUDY DURATION: LIFETIME), Dose: 0, 435, 870, 1740 PPM 6 HR/D 5 D/WK FOR 30 D EXCEPT 1740 PPM GROUP WHICH WAS EXPOSED FOR 5 D (STUDY DURATION: LIFETIME)) was “inactive; negative”.

Reference: PubChem BioAssay AID1259411 (Chemical Carcinogenesis Research Information System (CCRIS), 2018)
